Experimental data reported in US20180000085A1, “USE OF PICOLINAMIDE COMPOUNDS WITH FUNGICIDAL ACTIVITY” (DOW AGROSCIENCES LLC, priority 2014, published 2018).

Legend:
[1] = test system: Puccinia triticina; assay: Wheat brown rust (PUCCRT) disease control on wheat seedlings; assay type: in vivo; design: key to PUCCRT 3DC, HV activity at 100 ppm (% control rating) / PUCCRT disease control, 3DC / PUCCRT 1DP disease control rating, HV activity / PUCCRT 3DC disease control rating, HV activity / PUCCRT 3DC, LV activity at 125.1 g/H (% Control rating) / PUCCRT 1DP, LV activity at 125.1 g/H (% Control rating) / PUCCRT 3DC disease control rating, LV activity at 125.1 g/H / PUCCRT 1DP disease control rating, LV activity at 125.1 g/H / PUCCRT 3DC disease control rating, HV activity at 100 ppm / PUCCRT 1DP disease control rating, HV activity at 100 ppm / HV activity at 100 ppm PUCCRT 3DC (disease control rating) / LV activity at 125.1 g/H PUCCRT 1DP (disease control rating) / LV activity at 125.1 g/H PUCCRT 3DC (disease control rating): A: > 80; B: ≤ 80; C: Not Tested; D: No Activity Observed in the Reported Assay; conditions: for PUCCRT 1DP disease control rating, LV activity at 125.1 g/H / PUCCRT 1DP disease control rating, HV activity at 100 ppm: 1 day protectant; for PUCCRT 3DC disease control rating, LV activity at 125.1 g/H / PUCCRT 3DC disease control rating, HV activity at 100 ppm: 3 day curative; for PUCCRT 1DP disease control rating, HV activity / PUCCRT 3DC disease control rating, HV activity: HV application at 100 ppm; for PUCCRT 1DP disease control rating, HV activity / PUCCRT 3DC disease control rating, HV activity / LV activity at 125.1 g/H PUCCRT 1DP (disease control rating) / LV activity at 125.1 g/H PUCCRT 3DC (disease control rating): wheat brown rust; for PUCCRT 1DP disease control rating, HV activity at 100 ppm / PUCCRT 3DC disease control rating, HV activity at 100 ppm: high volume application
[2] = test system: Zymoseptoria tritici; assay: Leaf blotch of wheat (SEPTTR) disease control on wheat seedlings; assay type: in vivo; design: key to SEPTTR 1DP, HV activity at 100 ppm (% control rating) / SEPTTR 3DC, HV activity at 100 ppm (% control rating) / SEPTTR disease control, 1DP / SEPTTR disease control, 3DC / SEPTTR 1DP disease control rating, HV activity / SEPTTR 3DC disease control rating, HV activity / SEPTTR 3DC, LV activity at 125.1 g/H (% Control rating) / SEPTTR 1DP, LV activity at 125.1 g/H (% Control rating) / SEPTTR 1DP disease control rating, LV activity at 125.1 g/H / SEPTTR 3DC disease control rating, LV activity at 125.1 g/H / SEPTTR 3DC disease control rating, HV activity at 100 ppm / SEPTTR 1DP disease control rating, HV activity at 100 ppm / HV activity at 100 ppm SEPTTR 3DC (disease control rating) / HV activity at 100 ppm SEPTTR 1DP (disease control rating) / LV activity at 125.1 g/H SEPTTR 1DP (disease control rating) / LV activity at 125.1 g/H SEPTTR 3DC (disease control rating): A: > 80; B: ≤ 80; C: Not Tested; D: No Activity Observed in the Reported Assay; conditions: for SEPTTR 1DP disease control rating, LV activity at 125.1 g/H / SEPTTR 1DP disease control rating, HV activity at 100 ppm: 1 day protectant; for SEPTTR 3DC disease control rating, LV activity at 125.1 g/H / SEPTTR 3DC disease control rating, HV activity at 100 ppm: 3 day curative; for SEPTTR 1DP disease control rating, HV activity / SEPTTR 3DC disease control rating, HV activity: HV application at 100 ppm; for SEPTTR 1DP disease control rating, HV activity / SEPTTR 3DC disease control rating, HV activity / LV activity at 125.1 g/H SEPTTR 1DP (disease control rating) / LV activity at 125.1 g/H SEPTTR 3DC (disease control rating): wheat leaf blotch; for SEPTTR 1DP disease control rating, HV activity at 100 ppm / SEPTTR 3DC disease control rating, HV activity at 100 ppm: high volume application
[3] = low volume application, 125.1 g/H
[4] = low volume application, 125.1 g/H, 1 Day Protectant
[5] = low volume application, 125.1 g/H, 3 Day Curative

For `CCC(CC)C(Oc1ccc(Cl)cc1Cl)C(C)OC(=O)C(CC(C)C)NC(=O)c1nccc(OC)c1OC(C)=O` (stereo not drawn) [Cmpd 689], the “PUCCRT 1DP disease control rating, LV activity at 125.1 g/H” value [1, 3] was “D”, the “PUCCRT 3DC disease control rating, LV activity at 125.1 g/H” value [1, 3] was “D” and the “SEPTTR 1DP disease control rating, LV activity at 125.1 g/H” value [2, 3] was “D”. The “SEPTTR 3DC disease control rating, LV activity at 125.1 g/H” value [2, 3] was “B (≤ 80)”.

In the case of `COc1ccnc(C(=O)N[C@@H](C)C(=O)O[C@@H](C)[C@H](Oc2ccc(Cl)cc2Cl)C2CCCC2)c1O` [Cmpd 346], the “PUCCRT 1DP disease control rating, HV activity” value ([1]; 1 Day Protectant) is reported as “B (≤ 80)”, the “PUCCRT 3DC disease control rating, HV activity” value ([1]; 3 Day Curative) is reported as “D” and the “SEPTTR 1DP disease control rating, HV activity” value ([2]; 1 Day Protectant) is reported as “D”. The “SEPTTR 3DC disease control rating, HV activity” value ([2]; 3 Day Curative) was “B (≤ 80)”.

For `CCC(CC)C(Oc1ccc(Cl)cc1Cl)C(C)OC(=O)C(CC(C)C)NC(=O)c1nccc(OC)c1O` (stereo not drawn) [Cmpd 430], the “PUCCRT 1DP disease control rating, HV activity” value ([1]; 1 Day Protectant) was “B (≤ 80)”, the “PUCCRT 3DC disease control rating, HV activity” value ([1]; 3 Day Curative) was “D” and the “SEPTTR 1DP disease control rating, HV activity” value ([2]; 1 Day Protectant) was “D”. For the same compound, the “SEPTTR 3DC disease control rating, HV activity” value ([2]; 3 Day Curative) was “D”.

`C=CC[C@@H](OCc1ccccc1)[C@H](C)OC(=O)[C@H](C)NC(=O)c1nccc(OC)c1O` [Cmpd 333, (S)-(2S,3R)-3-(benzyloxy)hex-5-en-2-yl-2-(3-hydroxy-4-methoxypicolinamido)propanoate] was tested, and the “PUCCRT 1DP disease control rating, HV activity” value ([1]; 1 Day Protectant) was “A (> 80)”, the “PUCCRT 3DC disease control rating, HV activity” value ([1]; 3 Day Curative) was “A (> 80)” and the “SEPTTR 1DP disease control rating, HV activity” value ([2]; 1 Day Protectant) was “B (≤ 80)”. For the same compound, the “SEPTTR 3DC disease control rating, HV activity” value ([2]; 3 Day Curative) was “B (≤ 80)”.

For `COc1ccnc(C(=O)NC(C)C(=O)OC(C)C(OCC(C)C)c2ccccc2)c1O` (stereo not drawn) [Cmpd 820], the “PUCCRT 1DP disease control rating, HV activity at 100 ppm” value [1] was “A (> 80)”, the “PUCCRT 3DC disease control rating, HV activity at 100 ppm” value [1] was “A (> 80)” and the “SEPTTR 1DP disease control rating, HV activity at 100 ppm” value [2] was “A (> 80)”. For the same compound, the “SEPTTR 3DC disease control rating, HV activity at 100 ppm” value [2] was “A (> 80)”.

For `C=CC(OC(=O)C(C)NC(=O)c1nccc(OC)c1OCOC(C)=O)C(Oc1ccccc1)C(C)C` (stereo not drawn) [Cmpd 1092], the “LV activity at 125.1 g/H PUCCRT 1DP (disease control rating)” value [1, 4] was “B (≤ 80)”, the “LV activity at 125.1 g/H PUCCRT 3DC (disease control rating)” value [1, 5] was “B (≤ 80)” and the “LV activity at 125.1 g/H SEPTTR 1DP (disease control rating)” value [2, 4] was “D”. The “LV activity at 125.1 g/H SEPTTR 3DC (disease control rating)” value [2, 5] was “D”.

With `COc1ccnc(C(=O)NC(C)C(=O)OC(C)(C)C(Oc2ccccc2)C(C)C)c1OCOC(C)=O` (mixture of isomers) [Cmpd 903] the “PUCCRT 1DP disease control rating, LV activity at 125.1 g/H” value [1, 3] was “B (≤ 80)”, the “PUCCRT 3DC disease control rating, LV activity at 125.1 g/H” value [1, 3] was “D” and the “SEPTTR 1DP disease control rating, LV activity at 125.1 g/H” value [2, 3] was “B (≤ 80)”. For the same compound, the “SEPTTR 3DC disease control rating, LV activity at 125.1 g/H” value [2, 3] was “A (> 80)”.

For `COc1ccnc(C(=O)NC(C)C(=O)OC(C)C(OC)C23CC4CC(CC(C4)C2)C3)c1O` (stereo not drawn) [Cmpd 829], the “PUCCRT 1DP disease control rating, HV activity at 100 ppm” value [1] was “B (≤ 80)”, the “PUCCRT 3DC disease control rating, HV activity at 100 ppm” value [1] was “D” and the “SEPTTR 1DP disease control rating, HV activity at 100 ppm” value [2] was “D”. For the same compound, the “SEPTTR 3DC disease control rating, HV activity at 100 ppm” value [2] was “D”.

In the case of `CCCC(OC(=O)C(C)NC(=O)c1nccc(OC)c1OCOC(C)=O)C(Oc1ccccc1)C(C)C` (stereo not drawn) [Cmpd 1096], the “LV activity at 125.1 g/H PUCCRT 1DP (disease control rating)” value [1, 4] is reported as “D”, the “LV activity at 125.1 g/H PUCCRT 3DC (disease control rating)” value [1, 5] is reported as “D” and the “LV activity at 125.1 g/H SEPTTR 1DP (disease control rating)” value [2, 4] is reported as “D”. The “LV activity at 125.1 g/H SEPTTR 3DC (disease control rating)” value [2, 5] was “B (≤ 80)”.

In the case of `CCC(CC)[C@@H](Oc1cc(F)ccc1F)[C@H](C)OC(=O)[C@H](C)NC(=O)c1nccc(OC)c1OCOC(C)=O` [Cmpd 591], the “PUCCRT 1DP, LV activity at 125.1 g/H (% Control rating)” value [1, 4] is reported as “A (> 80)”, the “PUCCRT 3DC, LV activity at 125.1 g/H (% Control rating)” value [1, 5] is reported as “A (> 80)” and the “SEPTTR 1DP, LV activity at 125.1 g/H (% Control rating)” value [2, 4] is reported as “B (≤ 80)”. The “SEPTTR 3DC, LV activity at 125.1 g/H (% Control rating)” value [2, 5] was “A (> 80)”.

For `CC[C@H](Cc1ccccc1)[C@@H](Oc1ccccc1)[C@H](C)OC(=O)[C@H](C)NC(=O)c1nccc(OC)c1O` [Cmpd 311], the “PUCCRT 1DP disease control rating, HV activity” value ([1]; 1 Day Protectant) was “A (> 80)”, the “PUCCRT 3DC disease control rating, HV activity” value ([1]; 3 Day Curative) was “A (> 80)” and the “SEPTTR 1DP disease control rating, HV activity” value ([2]; 1 Day Protectant) was “A (> 80)”. For the same compound, the “SEPTTR 3DC disease control rating, HV activity” value ([2]; 3 Day Curative) was “B (≤ 80)”.

In the case of `COc1ccnc(C(=O)NC(C)C(=O)OC(C)C(Oc2ccccc2)c2cccs2)c1OC(C)=O` (stereo not drawn) [Cmpd 690], the “PUCCRT 1DP disease control rating, LV activity at 125.1 g/H” value [1, 3] is reported as “B (≤ 80)”, the “PUCCRT 3DC disease control rating, LV activity at 125.1 g/H” value [1, 3] is reported as “B (≤ 80)” and the “SEPTTR 1DP disease control rating, LV activity at 125.1 g/H” value [2, 3] is reported as “B (≤ 80)”. For the same compound, the “SEPTTR 3DC disease control rating, LV activity at 125.1 g/H” value [2, 3] was “B (≤ 80)”.
